Experimental data reported in patent US20260356984A1, “DNA-AFFIBODY-DRUG NANOSTRUCTURES FOR INHIBITING TRIPLE NEGATIVE BREAST CANCER GROWTH AND METASTASIS” (ARIZONA BOARD OF REGENTS ON BEHALF OF ARIZONA STATE …, priority 2022, published 2026).
Values belong to the compound of their own block, whether it stands above or below them.

How the values were obtained:
TNBC = conditions: employed as a single agent; cited from earlier work
breast cancer = breast cancer patients; cited from earlier work
MB231 cancer cells = experiment: Invasion assay (matrigel treated Transwell); assay type: cell-based; conditions: 500 nM THZ1; 24 h; p<0.001
Procedure: (§1) FIGS. 5A-5E. Migration assays for MB231 breast cancer cells. (A) without drug treatment; (B) treatment with THZ1; (C) treatment with nanostructure I; (D) Migration rate of MB231 (migrated cell numbers/control cell numbers×100%) (p<0.001); (E) Invasion rate of MB231 (invaded cell numbers/control cell numbers×100%) (p<0.001).
Invasion assay: To verify whether nanostructure I blocks cells from passing through vessel walls, an invasion assay was performed using a matrigel matrix treated Transwell™ to mimic the vessel wall. […] As a negative control, the invasion of HER1 negative BT474 BC cells were not affected by I (FIG. 6B).

MB-231 cells = experiment: Growth/death of MB-231 cells after 48 h incubation; assay type: cell-based; conditions: 500 nM THZ1
Procedure: (§2) FIGS. 4A-4H. Crosslinking of BC cells induced by I. MB-231 cells without drug treatment (A, D); with 500 nM THZ1 (B, E); with 10 nM I (C, F) were incubated 24 h and 48 h, respectively. (G) Calculated crosslinking efficiency of MB-231 cells in the presence of 10 nM I in 24 h (p<0.001); (H) Calculated crosslinking efficiency of BT474 cells in the presence of 10 nM I in 24 h.
(§3) Crosslinking assay: Crosslinking of TNBC cells by I was verified using a HER1 overexpressing TNBC cell line (MDA-MB-23146). In the presence of nanostructure I (containing 50 copies of THZ1), the cells were effectively crosslinked to each other through multiple ZHER1-HER1 bindings. […] The crosslinking efficiency was up to 96% in 24 h (FIG. 4G). [Crosslinking efficiency (%)=(cell number without any treatment-non-aggregated cell number)× 100%/(cell number without any treatment). Data were reported as the mean of three independent experiments].

MDA-MB-231 cells = experiment: Crosslinking assay of HER1 overexpressing TNBC cells; assay type: cell-based; conditions: 500 nM free THZ1; 24 h
Procedure: as §2, §3

[1] = tested on: MB231 breast cancer cells; experiment: Transwell migration assay; assay type: cell-based; conditions: 500 nM THZ1; 24 h; p<0.001
Procedure: as §1
Migration assay: To verify whether nanostructure I blocks TNBC cell dissociation from aggregated cell clusters, a Transwell™ migration assay was performed. […] Since nanostructure I contains the same amount of THZ1, the enhanced inhibition of migration by nanostructure I is attributed to its ability to crosslink the cells. As a negative control, the migration of HER1 negative BT474 BC cells were not inhibited by I (FIG. 6A).

DNA tetrahedron = experiment: DNA-THZ1 binding assay (G-25 column, UV absorption 220 nm)
Procedure: FIGS. 3A-3B. DNA-THZ1 binding assay. (A) Analysis of binding ratio of THZ1 to DNA tetrahedron using UV absorption of THZ1 (220 nm). DNA tetrahedron (0.2 μM) was added different amounts of THZ1 (2-12 μM). The unbound THZ1 was removed through a Sephadex G-25 column for the detection samples. (B) Analysis of THZ1 binding to DNA tetrahedron (TH)-4ZHER1 using 1% agarose gel electrophoresis. The gel was run at 110 V for 1 h, and stained with ethidium bromide. Lanes 1-5, […] DNA tetrahedron (TH)-4ZHER1 incubated with 0-200 folds of THZ1.
DNA-THZ1 binding assay: The DNA binding property of THZ1 was evaluated following our reported method.^43 DNA tetrahedron was incubated with 10-60 fold of THZ1. After purification with G-25 column to remove unbound THZ1, the amount of THZ1 in the DNA tetrahedron was measured using UV absorption at 220 nm. […] Then we used a 1% agarose gel to analyze the binding property for high concentrations of THZ1. […] Thus, we used 50-fold of THZ1 to prepare DNA tetrahedron-4ZHER1-THZ1 nanostructure (I) for following assays.

[2] = tested on: double-strand linear DNA (20 bp, 40 bp and 60 bp); experiment: Linear double-strand DNA binding to THZ1 (1% agarose gel); conditions: 40-160 mM THZ1
Procedure: FIG. 9. Verification of linear DNA binding to THZ1. Double-strand linear DNAs were mixed with different amounts of THZ1 and loaded on 1% agarose gel. The gels were run at 150 V for 20 min, and stained with EtBr.
Binding of DNA to THZ1 was evaluated (FIG. 9). Double-strand linear DNAs (20 bp, 40 bp and 60 bp) were prepared by mixing two complimentary DNAs (as listed below) in 50 mM Tris-HCl, pH 7.5, containing 50 mM NaCl. The reaction mixtures were heated at 90 °C for 5 min, then cool to room temperature. To keep the same base-pair number for each same, the 20 bp DNA was adjusted to 2 mM; 40 bp DNA was adjusted to 1 mM; 60 bp DNA was adjusted to 0.67 mM. Then 40-160 mM THZ1 were added to each sample and loaded on 1% agarose gel.

Compound: panitumumab: Anti-HER1 monoclonal antibody
benefit to TNBC patients (TNBC): neither antibody confers significant benefit to TNBC patients

Compound: Patritumab deruxtecan: HER3 antibody drug conjugate
clinical activity (breast cancer): early and clinically meaningful activity

concentration of THZ1 in DNA tetrahedron (DNA tetrahedron; 0.2 μM DNA tetrahedron, ratio THZ1/DNA tetrahedron 10 to 50, UV 220 nm after G-25 column): increased linearly
binding to double-strand DNA [2]: can bind to double-strand DNA
Compound: CN(C)C/C=C/C(=O)Nc1ccc(C(=O)Nc2cccc(Nc3ncc(Cl)c(-c4c[nH]c5ccccc45)n3)c2)cc1 [THZ1]
inhibition of invasion (MB231 cancer cells): 51%
cell growth (MB-231 cells): partially growth inhibited
cell aggregation (MDA-MB-231 cells): not aggregated
inhibition of migration [1]: 57%
passage of THZ1/DNA complex through G-25 column (DNA tetrahedron; ratio THZ1/DNA tetrahedron 60): part of THZ1/DNA complex did not pass through the G-25 column
